One assay concerns the target T1, cat T1R1/T1R3 receptor (Felis catus, UniProt A0ABI7Z2I4).
T1 sequence (A0ABI7Z2I4 171-420): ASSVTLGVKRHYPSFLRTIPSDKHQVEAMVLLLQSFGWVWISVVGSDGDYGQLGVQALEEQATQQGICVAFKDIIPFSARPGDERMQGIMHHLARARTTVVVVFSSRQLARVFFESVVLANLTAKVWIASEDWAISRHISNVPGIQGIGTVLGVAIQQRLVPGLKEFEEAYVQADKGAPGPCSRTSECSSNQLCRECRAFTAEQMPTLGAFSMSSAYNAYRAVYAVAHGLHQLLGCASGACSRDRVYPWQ
T1 sequence (Q49KI5 25-865 E206Q/N523D/F654L partner): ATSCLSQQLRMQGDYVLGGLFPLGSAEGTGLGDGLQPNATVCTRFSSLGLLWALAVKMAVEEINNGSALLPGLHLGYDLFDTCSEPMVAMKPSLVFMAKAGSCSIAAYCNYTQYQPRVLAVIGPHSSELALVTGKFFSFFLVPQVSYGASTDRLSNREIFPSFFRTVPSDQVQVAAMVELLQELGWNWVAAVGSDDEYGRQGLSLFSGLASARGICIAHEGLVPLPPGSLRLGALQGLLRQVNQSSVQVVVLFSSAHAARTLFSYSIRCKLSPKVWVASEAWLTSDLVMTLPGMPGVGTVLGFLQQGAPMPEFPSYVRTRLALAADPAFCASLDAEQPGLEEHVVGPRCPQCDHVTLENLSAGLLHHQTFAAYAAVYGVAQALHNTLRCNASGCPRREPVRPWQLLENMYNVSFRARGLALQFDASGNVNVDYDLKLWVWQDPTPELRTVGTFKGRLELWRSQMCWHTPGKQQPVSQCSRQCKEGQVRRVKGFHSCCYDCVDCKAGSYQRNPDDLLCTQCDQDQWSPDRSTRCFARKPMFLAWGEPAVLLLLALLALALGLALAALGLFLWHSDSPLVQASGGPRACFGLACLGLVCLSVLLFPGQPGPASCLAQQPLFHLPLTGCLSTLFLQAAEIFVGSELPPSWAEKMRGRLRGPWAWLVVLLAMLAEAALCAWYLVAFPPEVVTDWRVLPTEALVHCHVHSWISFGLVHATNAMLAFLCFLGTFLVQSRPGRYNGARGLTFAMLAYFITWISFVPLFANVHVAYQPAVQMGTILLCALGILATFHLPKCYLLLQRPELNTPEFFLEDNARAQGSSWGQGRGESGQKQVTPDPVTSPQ
In words: cell-based. How it is done: […] Activation of the T1R1/T1R3 receptor was detected by a change in intracellular calcium levels using a calcium sensitive fluorescent dye. Cells that express T1R3 but not T1R1 were used as a control. A FLIPR® Tetra or a FlexStation® 3 was used for data capture.
In each experiment, serial dilutions of up to 0.1 mM, 1 mM or 10 mM of the nucleotide derivative were added to the T1R1/T1R3-expressing cells.

For assay [1], the target named is T2, T1R1/T1R3 receptor (Felis catus, UniProt E3UMS2). In words: Example 6: activation of T1R1/T1R3 by transmembrane compounds, conducted as in Example 5. It counts as cell-based. The source says:
HEK293 cells that stably express T1R3 and inducibly express T1R1 were exposed to transmembrane compounds alone or in combination with one or more amino acids and/or one or more nucleotides to activate the umami receptor. Activation of the T1R1/T1R3 receptor was detected by a change in intracellular calcium levels using a calcium sensitive fluorescent dye. Cells that express T1R3 but not T1R1 were used as a control. A FLIPR® Tetra or a FlexStation® 3 was used for data capture.
In each experiment, serial dilutions of up to 10 mM of the transmembrane compound were added to the T1R1/T1R3-expressing cells.

Assay [2] concerns the target T2, T1R1/T1R3 receptor. In words: cell-based. The settings on record: for Max resp % of Ala, +IMP (0.2 mM): relative to alanine; for Thres (mM), +IMP (0.2 mM): threshold concentration in the presence of 0.2 mM IMP. A digest of the protocol: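 HEK293 cells stably expressing T1R3 with inducible T1R1 were given transmembrane compounds in serial dilutions up to 10 mM, alone or with amino acids and/or nucleotides. Receptor activation was read as an intracellular calcium change with a calcium-sensitive fluorescent dye; T1R3-only cells served as control.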

The mark [3] stands for this setting: T1R1/T1R3 EC50 +20 mM L-alanine, +20 mM L-alanine.
[4] abbreviates: T1R1/T1R3 EC50 +0.2 mM IMP, +0.2 mM IMP.
The mark [5] stands for this setting: alone in buffer, read-out: T1R1/T1R3 EC50 alone in buffer.
Setting [6] is: EC50 (mM), +Alanine (20 mM) + IMP (0.2 mM), in the presence of 20 mM alanine and 0.2 mM IMP.
Where [7] appears, read: EC50 (mM), +IMP (0.2 mM), in the presence of 0.2 mM IMP.
[8] abbreviates: T1R1/T1R3 EC50 +20 mM L-alanine + 0.2 mM IMP, +20 mM L-alanine + 0.2 mM IMP.
Where [9] appears, read: compound alone in buffer, read-out: EC50 (mM), +buffer (alone).

Counter-ions that a name gives are not always drawn.

The compound `O=c1[nH]cnc2c1ncn2C1OC(COP(=O)(O)OP(=O)(O)O)C(O)C1O` (stereo not drawn) [Inosine 5′-disphosphate (IDP) sodium salt] yielded an EC50 at cat T1R1/T1R3 receptor of 650 ± 70 µM.

Regarding `COC(=O)[C@H](Cc1ccccc1)NCc1ccccc1` [N-benzyl-L-phenylalanine methyl ester HCl], the EC50 at T1R1/T1R3 receptor [1] (setting [3]) came to 50 ± 1 µM; at T1R1/T1R3 receptor [1] (T1R1/T1R3 EC50 alone in buffer, alone in buffer), 30 ± 2 µM.

Regarding `O=C(NCCc1c[nH]c2ccccc12)c1cccnc1` [N-(2-(1H-indol-3-yl)ethyl)nicotinamide, N-(2-(1H-Indol-3-yl)ethyl)nicotinamide], the EC50 at T1R1/T1R3 receptor [1] (setting [4]) is 50 ± 10 µM; at T1R1/T1R3 receptor [1] (setting [5]) it was 150 ± 30 µM; on T1R1/T1R3 receptor [2] (setting [6]), 0.04 mM; at T1R1/T1R3 receptor [2] (setting [7]), 0.05 mM; at T1R1/T1R3 receptor [2] (setting [4]), 0.05 ± 0.01 mM; on T1R1/T1R3 receptor [2] (setting [8]), 0.04 ± 0.1 mM. Moreover, the figures for the EC50 at T1R1/T1R3 receptor [2] (setting [5]) and on T1R1/T1R3 receptor [2] (setting [9]) were 0.15 ± 0.03 mM and 0.15 mM, respectively. Moreover, the “Max resp % of IMP, +Alanine (20 mM)” value on T1R1/T1R3 receptor [2] is reported as 166.4%. Also, the “Thres (mM), +Alanine (20 mM)” value on T1R1/T1R3 receptor [2] was 0.03 mM. For the same compound, the “Max resp % of Ala, +IMP (0.2 mM)” value on T1R1/T1R3 receptor [2] (in the presence of 0.2 mM IMP) came to 170.1%. In addition, the “Thres (mM), +IMP (0.2 mM)” value on T1R1/T1R3 receptor [2] amounted to 0.003 mM.

`Nc1ccccc1C(=O)NCCc1ccccc1` [2-amino-N-phenethylbenzamide]: the EC50 at T1R1/T1R3 receptor [1] came out at 480 ± 10 µM; on T1R1/T1R3 receptor [1] (setting [4]), 140 ± 30 µM; on T1R1/T1R3 receptor [1] (setting [5]) it was 420 ± 10 µM; on T1R1/T1R3 receptor [2] (setting [6]), 0.09 mM; at T1R1/T1R3 receptor [2] (EC50 (mM), +Alanine (20 mM), in the presence of 20 mM alanine), 0.48 mM; at T1R1/T1R3 receptor [2] (setting [7]), 0.14 mM. Moreover, the EC50 at T1R1/T1R3 receptor [2] (setting [4]) worked out at 0.14 ± 0.02 mM; at T1R1/T1R3 receptor [2] (setting [8]) it was 0.09 ± 0.01 mM; on T1R1/T1R3 receptor [2] (setting [3]), 0.48 ± 0.01 mM; on T1R1/T1R3 receptor [2] (setting [5]), 0.42 ± 0.01 mM; at T1R1/T1R3 receptor [2] (setting [9]) it was 0.42 mM. Further, the “Max resp % of IMP, +Alanine (20 mM)” value on T1R1/T1R3 receptor [2] came out at 93.4%. In addition, the “Thres (mM), +Alanine (20 mM)” value on T1R1/T1R3 receptor [2] was found to be 0.3 mM. Further, the “Max resp % of Ala, +IMP (0.2 mM)” value at T1R1/T1R3 receptor [2] (in the presence of 0.2 mM IMP) was 194.5%. On T1R1/T1R3 receptor [2], the “Thres (mM), +IMP (0.2 mM)” value was found to be 0.01 mM.

Values taken from US20180168208A1 (priority 2014, published 2018).
